Experimental data: patent US10132029B2, “Method for reducing adhesion of microorganisms to fabrics” (priority 2013, dated 2018)

Tested on: Staphylococcus aureus
Assay: Antimicrobial activity of coated polyester fabric samples as per JIS L 1902
Assay type: cell-based
Settings: for Antimicrobial activity[log] Unwashed: 18 hours at 37° C.
Method: The procedure here is that the fabric sample was inoculated with a defined amount of a microbial suspension (inoculum). Test specimens with a weight of approximately 0.4 g were investigated in a triplicate determination.
The inoculated fabric sample was incubated in a closed system at 37° C. over a period of 18 hours. Following incubation, the bacteria of a defined amount of a dilution solution were recorded. The difference in the bacterial count of the fabric sample at 0 hours in comparison to the fabric sample after 18 hours served as a basis for evaluation. The antimicrobial activity is reported as a logarithmic or percentage value. Here, a reduction in the microbe count of 0% corresponds to inadequate antimicrobial action, a microbe reduction in the range from 0.1 to less than 90% to an inadequate antibacterial action, and a microbe reduction of greater than 90% to a good antibacterial action.

[1] = coating concentration 0.001 % based on fabric
[2] = coating concentration 0.01 % based on fabric
[3] = coating concentration 0.1 % based on fabric

Row | Compound | Antimicrobial activity[log] Unwashed [1] | Antimicrobial activity[log] Washed once at 30° C., without detergent [1] | Antimicrobial activity[log] Washed twice with water [1] | Antimicrobial activity[log] Unwashed [2] | Antimicrobial activity[log] Washed once at 30° C., without detergent [2] | Antimicrobial activity[log] Washed twice with water [2] | Antimicrobial activity[log] Unwashed [3] | Antimicrobial activity[log] Washed once at 30° C., without detergent [3] | Antimicrobial activity[log] Washed twice with water [3]
1 | CO[Si](CCCN(CCN(CC(=O)[O-])CC(=O)[O-])CC(=O)[O-])(OC)OC.[Na+].[Na+].[Na+] [S5, N-(trimethoxysilylpropyl)ethylenediaminetriacetyl acid, trisodium salt] | 0.5 log | −0.3 log | 0.9 log | −0.3 log | −0.6 log | −0.2 log | −0.5 log | −0.6 log | −0.4 log
2 | N-(triethoxysilylpropyl)-O-polyethylene oxide-urethane, (4-6 EO units) [S3] | −0.5 log | −0.8 log | −0.3 log | −0.1 log | −0.1 log | 0.8 log | 0.0 log | −0.4 log | 0.3 log
